Measured values as given in patent US20110086759A1, “CHEMICAL COMPOUNDS” (SYNGENTA CROP PROTECTION, INC., priority 2007, published 2011).

What was measured:
[1] = test system: Amaranthus retoflexus (AMARE); assay: Pre-emergence biological efficacy, glasshouse pot test; type: in vivo; settings: Amaranthus retroflexus, 312 h; pre-emergence, rate 1,000 g/ha, evaluated after 13 days (100=total damage to plant; 0=no damage); read-out: Percentage damage caused to weed species, AMARE
Summary of the method: (§1)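 Compound was applied as a spray one day after sowing, at a final dose of 1000 or 250 g/ha. Plants grew under 14 h light, 24/16 °C and 65% humidity, and injury was assessed on day 13 on a 0–100 scale.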

[2] = test system: Echinochloa crus-galli (ECHCG); assay: as above; type: in vivo; settings: 312 h, pre-emergence, rate 1,000 g/ha, evaluated after 13 days (100=total damage to plant; 0=no damage), read-out: Percentage damage caused to weed species, ECHCG
Summary of the method: as §1

[3] = test system: Setaria faberi (SETFA); assay: as above; type: in vivo; settings: 312 h, pre-emergence, rate 1,000 g/ha, evaluated after 13 days (100=total damage to plant; 0=no damage), read-out: Percentage damage caused to weed species, SETFA
Summary of the method: as §1

[4] = test system: Solanum nigrum (SOLNI); assay: as above; type: in vivo; settings: 312 h, pre-emergence, rate 1,000 g/ha, evaluated after 13 days (100=total damage to plant; 0=no damage), read-out: Percentage damage caused to weed species, SOLNI
Summary of the method: as §1

[5] = test system: Alopecurus myosuroides (ALOMY); assay: as above; type: in vivo; settings: 312 h, pre-emergence, rate 1,000 g/ha, evaluated after 13 days (100=total damage to plant; 0=no damage), read-out: Percentage damage caused to weed species, ALOMY
Summary of the method: as §1

[6] = test system: Ipomea hederaceae (IPOHE); assay: as above; type: in vivo; settings: Ipomoea hederacea, 312 h; pre-emergence, rate 1,000 g/ha, evaluated after 13 days (100=total damage to plant; 0=no damage); read-out: Percentage damage caused to weed species, IPOHE
Summary of the method: as §1

[7] = test system: Amaranthus retoflexus (AMARE); assay: Post-emergence biological efficacy, glasshouse pot test; type: in vivo; settings: Amaranthus retroflexus, 312 h; Rate 1,000 g/ha; post-emergence spray; evaluated after 13 days (100=total damage to plant; 0=no damage to plant); read-out: Percentage damage caused to weed species, post-emergence, AMARE
Summary of the method: (§2)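 Plants were sown in standard soil and grown 8 days in a glasshouse (24/16° C. day/night, 14 hours light, 65% humidity), then sprayed post-emergence at 1000 or 250 g/ha from acetone/water (50:50) with 0.5% Tween 20. Damage was scored visually after 13 days (0 = none, 100 = total).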

[8] = test system: Echinochloa crus-galli (ECHCG); assay: as above; type: in vivo; settings: 312 h, Rate 1,000 g/ha, post-emergence spray, evaluated after 13 days (100=total damage to plant; 0=no damage to plant), read-out: Percentage damage caused to weed species, post-emergence, ECHCG
Summary of the method: as §2

[9] = test system: Setaria faberi (SETFA); assay: as above; type: in vivo; settings: 312 h, Rate 1,000 g/ha, post-emergence spray, evaluated after 13 days (100=total damage to plant; 0=no damage to plant), read-out: Percentage damage caused to weed species, post-emergence, SETFA
Summary of the method: as §2

[10] = test system: Solanum nigrum (SOLNI); assay: as above; type: in vivo; settings: 312 h, Rate 1,000 g/ha, post-emergence spray, evaluated after 13 days (100=total damage to plant; 0=no damage to plant), read-out: Percentage damage caused to weed species, post-emergence, SOLNI
Summary of the method: as §2

[11] = test system: Alopecurus myosuroides (ALOMY); assay: as above; type: in vivo; settings: 312 h, Rate 1,000 g/ha, post-emergence spray, evaluated after 13 days (100=total damage to plant; 0=no damage to plant), read-out: Percentage damage caused to weed species, post-emergence, ALOMY
Summary of the method: as §2

[12] = test system: Ipomea hederaceae (IPOHE); assay: as above; type: in vivo; settings: Ipomoea hederacea, 312 h; Rate 1,000 g/ha; post-emergence spray; evaluated after 13 days (100=total damage to plant; 0=no damage to plant); read-out: Percentage damage caused to weed species, post-emergence, IPOHE
Summary of the method: as §2

melting point: 132 to 134 °C
SMILES: COC(=O)c1nc(-c2ccc(Cl)cc2)nc(NCc2ccco2)c1Cl [Compound 40-125, 5-chloro-2-(4-chlorophenyl)-4-(furan-2-ylmethylamino)-6-methoxycarbonylpyrimidine]
pest or weed control at 1000 g/ha [1]: 100%
pest or weed control at 1000 g/ha [2]: 50%
pest or weed control at 1000 g/ha [3]: 40%
pest or weed control at 1000 g/ha [4]: 80%
pest or weed control at 1000 g/ha [5]: 40%
pest or weed control at 1000 g/ha [6]: 20%
pest or weed control at 1000 g/ha [7]: 100%
pest or weed control at 1000 g/ha [8]: 70%
pest or weed control at 1000 g/ha [9]: 90%
pest or weed control at 1000 g/ha [10]: 90%
pest or weed control at 1000 g/ha [11]: 50%
pest or weed control at 1000 g/ha [12]: 90%
